Where two headings read alike, the source gives them in different places. Residues, ends and D or L forms follow the SMILES beside them. No end group written: not given here.
Assays:
HLA-DQ8 = HLA-DQ8 (Homo sapiens, UniProt P01909+P01920, A209T/A45G/C70Q/D89A/DUP78-78/E183D/E77G/F237L/G63E/H199R/I129T/K197E/L178F/L74F/L98V/Q57E/Q76R/S185I/S97I/T217I/T49S/V73L/Y58L); experiment: MHC II/peptide competition binding assay, HLA-DQ8
Method: (§1) One skilled in the art would appreciate that the 15-mers used included shorter de-epitoped high molecular weight glutenin peptide sequences (mutated repeating antigenic units), as described throughout. For example, Table 2 provides a listing of 15-mers and the shorter mutated repeating antigenic units present therein. […] MHC II molecules were purified by affinity chromatography, and peptides were radiolabeled using the chloramine T method. After an incubation period, the bound and unbound radiolabeled species were separated, and their relative amounts were determined by either size-exclusion gel-filtration chromatography or monoclonal antibody capture of MHC. The percent of bound radioactivity was then determined.

HLA-DQ2.5 [1] = biological target: HLA-DQ2.5 (Homo sapiens, UniProt P01909+P01920, A45G/A70V/D89A/E106A/E77G/E98D/H199R/L107V/N214S/P84L/P87L/T103K/T109R/T172A/T60S/V78E/V99I/Y58L/Y62S/Y69I/Y79F); experiment: MHC II/peptide competition binding assay, HLA-DQ2.5
Method: as §1

HLA-DQ7.5 = HLA-DQ7.5 (Homo sapiens, UniProt P01909+P01920); experiment: MHC II/peptide competition binding assay, HLA-DQ7.5
Method: The peptides were synthesized as purified material on the 2 mg scale with free acid C-termini (A&A labs, USA). One skilled in the art would appreciate that the 15-mers used included shorter de-epitoped high molecular weight glutenin peptide sequences (mutated repeating antigenic units), as described throughout. For example, Table 2 provides a listing of 15-mers and the shorter mutated repeating antigenic units present therein.
Briefly, competition assays using different concentrations of wild-type (WT) and modified glutenin peptides were conducted by diluting the peptides in NP40 buffer, and incubation for 2-4 days with purified MHC II and a radiolabeled known MHC binding peptide (peptide probe). MHC II molecules were purified by affinity chromatography, and peptides were radiolabeled using the chloramine T method. After an incubation period, the bound and unbound radiolabeled species were separated, and their relative amounts were determined by either size-exclusion gel-filtration chromatography or monoclonal antibody capture of MHC. The percent of bound radioactivity was then determined.

HLA-DQ2.2 = HLA-DQ2.2 (Homo sapiens, UniProt P01909+P01920, A45G/A70V/C70K/D167G/D89A/E106A/E183D/E77G/E98D/F237L/F77L/G63E/H199R/I129T/K197E/L107V/L178F/L74F/N214S/P84L/P87L/Q57E/Q76R/R75H/S185I/S97I/T103K/T109R/T172A/T60S/V73L/V78E/V99I/Y48F/Y58L/Y62S/Y69I/Y79F); experiment: MHC II/peptide competition binding assay, HLA-DQ2.2; settings: Table 3; 15-mer peptides; >40000 signifies binding is undetectable by assay
Method: as §1

HLA-DQ2.5 [2] = experiment: MHC II competition binding assay (purified MHC II, radiolabeled probe peptide as competitor)
[3] = Table 3, 15-mer peptides, >40000 signifies binding is undetectable by assay

Molecule | IC50 (HLA-DQ8; [3]) [µM] | IC50 (HLA-DQ2.5 [1]; [3]) [µM] | IC50 (HLA-DQ2.5 [2]) [µM] | other results
C[C@@H](O)[C@H](NC(=O)[C@@H]1CCCN1C(=O)[C@H](Cc1ccc(O)cc1)NC(=O)[C@H](Cc1ccc(O)cc1)NC(=O)CNC(=O)[C@H](CCC(N)=O)NC(=O)[C@H](CCC(N)=O)NC(=O)CNC(=O)[C@@H](N)CCC(N)=O)C(=O)N[C@@H](CO)C(=O)N1CCC[C@H]1C(=O)N[C@@H](CCC(N)=O)C(=O)N[C@@H](CCC(N)=O)C(=O)N[C@@H](CO)C(=O)NCC(=O)O [P1a, reference compound] (H-QGQQGYYPTSPQQSG-OH; N-terminus assumed) | 14.2 | 29.8 | – | –
C[C@@H](O)[C@H](NC(=O)[C@@H]1CCCN1C(=O)[C@H](Cc1ccc(O)cc1)NC(=O)[C@H](Cc1ccc(O)cc1)NC(=O)CNC(=O)[C@H](CCC(=O)O)NC(=O)[C@H](CCC(N)=O)NC(=O)CNC(=O)[C@@H](N)CCC(N)=O)C(=O)N[C@@H](CO)C(=O)N1CCC[C@H]1C(=O)N[C@@H](CCC(=O)O)C(=O)N[C@@H](CCC(N)=O)C(=O)N[C@@H](CO)C(=O)NCC(=O)O [P1b, reference compound] (H-QGQEGYYPTSPEQSG-OH; N-terminus assumed) | 3.76 | 3.29 | – | –
C[C@H](NC(=O)CNC(=O)[C@@H](N)CCC(N)=O)C(=O)N[C@@H](C)C(=O)NCC(=O)N[C@@H](Cc1ccc(O)cc1)C(=O)N[C@@H](Cc1ccc(O)cc1)C(=O)N1CCC[C@H]1C(=O)N[C@H](C(=O)N[C@@H](CO)C(=O)N1CCC[C@H]1C(=O)N[C@@H](CCCNC(=N)N)C(=O)N[C@@H](CCC(N)=O)C(=O)N[C@@H](CO)C(=O)NCC(=O)O)[C@@H](C)O [P1c] (H-QGAAGYYPTSPRQSG-OH) | > 40 | > 40 | – | IC50 (HLA-DQ7.5; [3]): 19.9 µM
C[C@@H](O)[C@H](NC(=O)[C@@H]1CCCN1C(=O)[C@H](CC(=O)O)NC(=O)[C@H](Cc1ccc(O)cc1)NC(=O)CNC(=O)[C@H](CO)NC(=O)[C@H](CCC(N)=O)NC(=O)CNC(=O)[C@@H](N)CCC(N)=O)C(=O)N[C@@H](CO)C(=O)N1CCC[C@H]1C(=O)N[C@H](C(=O)N[C@@H](CCC(N)=O)C(=O)N[C@@H](CO)C(=O)NCC(=O)O)[C@@H](C)O [P1d] (H-QGQSGYDPTSPTQSG-OH) | > 40 | > 40 | – | IC50 (HLA-DQ2.2): > 40 µM; IC50 (HLA-DQ7.5; [3]): > 40 µM
C[C@@H](O)[C@H](NC(=O)[C@@H]1CCCN1C(=O)[C@H](Cc1ccc(O)cc1)NC(=O)[C@H](Cc1ccc(O)cc1)NC(=O)[C@H](CCCNC(=N)N)NC(=O)[C@@H]1CCCN1C(=O)[C@H](CCC(N)=O)NC(=O)CNC(=O)[C@@H](N)CCC(N)=O)C(=O)N[C@@H](CO)C(=O)N1CCC[C@H]1C(=O)N[C@@H](CCCNC(=N)N)C(=O)N[C@@H](CCC(N)=O)C(=O)N[C@@H](CO)C(=O)NCC(=O)O [P1e] (H-QGQPRYYPTSPRQSG-OH) | 32.5 | 33.2 | – | IC50 (HLA-DQ7.5; [3]): 19.4 µM
CC(C)C[C@H](NC(=O)[C@H](CO)NC(=O)[C@@H](NC(=O)[C@@H]1CCCN1C(=O)[C@H](Cc1ccc(O)cc1)NC(=O)[C@H](Cc1ccc(O)cc1)NC(=O)CNC(=O)[C@H](Cc1c[nH]cn1)NC(=O)[C@H](CCC(N)=O)NC(=O)CNC(=O)[C@@H](N)CCC(N)=O)[C@@H](C)O)C(=O)N[C@@H](Cc1c[nH]cn1)C(=O)N[C@@H](CCC(N)=O)C(=O)N[C@@H](CO)C(=O)NCC(=O)O [P1f] (H-QGQHGYYPTSLHQSG-OH) | > 40 | > 40 | – | IC50 (HLA-DQ2.2): > 40 µM; IC50 (HLA-DQ7.5; [3]): > 40 µM
C[C@@H](O)[C@H](NC(=O)[C@@H]1CCCN1C(=O)[C@H](CC(=O)O)NC(=O)[C@H](CC(N)=O)NC(=O)CNC(=O)[C@H](CCC(=O)O)NC(=O)[C@H](CCC(N)=O)NC(=O)CNC(=O)[C@@H](N)CCC(N)=O)C(=O)NCC(=O)N1CCC[C@H]1C(=O)N[C@@H](CCC(=O)O)C(=O)N[C@@H](CCC(N)=O)C(=O)N[C@@H](CO)C(=O)NCC(=O)O [P1g] (H-QGQEGNDPTGPEQSG-OH) | > 40 | > 40 | – | IC50 (HLA-DQ2.2): > 40 µM; IC50 (HLA-DQ7.5; [3]): > 40 µM
C[C@H](NC(=O)[C@@H]1CCCN1C(=O)CNC(=O)[C@H](CCCNC(=N)N)NC(=O)CNC(=O)[C@H](CCC(=O)O)NC(=O)[C@H](CCC(N)=O)NC(=O)CNC(=O)[C@@H](N)CCC(N)=O)C(=O)N[C@@H](CO)C(=O)N1CCC[C@H]1C(=O)N[C@@H](CCCNC(=N)N)C(=O)N[C@@H](CCC(N)=O)C(=O)N[C@@H](CO)C(=O)NCC(=O)O [SEQ ID NO: 145] (H-QGQEGRGPASPRQSG-OH) | – | – | – | IC50 (HLA-DQ7.5): > 40 µM
CC(C)C[C@H](NC(=O)[C@H](CO)NC(=O)[C@@H](NC(=O)[C@@H]1CCCN1C(=O)[C@H](CC(=O)O)NC(=O)[C@H](Cc1ccc(O)cc1)NC(=O)CNC(=O)[C@H](Cc1c[nH]cn1)NC(=O)[C@H](CCC(N)=O)NC(=O)CNC(=O)[C@@H](N)CCC(N)=O)[C@@H](C)O)C(=O)N[C@@H](CCC(=O)O)C(=O)N[C@@H](CCC(N)=O)C(=O)N[C@@H](CO)C(=O)NCC(=O)O [SEQ ID NO: 173] (H-QGQHGYDPTSLEQSG-OH; N-terminus assumed) | – | – | – | IC50 (HLA-DQ8): > 40 µM; IC50 (HLA-DQ2.5 [1]): 15.9 µM
C[C@H](NC(=O)[C@@H]1CCCN1C(=O)CNC(=O)[C@H](Cc1c[nH]cn1)NC(=O)CNC(=O)[C@H](CCC(=O)O)NC(=O)[C@H](CCC(N)=O)NC(=O)CNC(=O)[C@@H](N)CCC(N)=O)C(=O)N[C@@H](CO)C(=O)N1CCC[C@H]1C(=O)N1CCC[C@H]1C(=O)N[C@@H](CCC(N)=O)C(=O)N[C@@H](CO)C(=O)NCC(=O)O [SEQ ID NO: 175] (H-QGQEGHGPASPPQSG-OH; N-terminus assumed) | – | – | – | IC50 (HLA-DQ8): > 40 µM; IC50 (HLA-DQ2.5 [1]): 22.1 µM
NC(=O)CC[C@H](NC(=O)CNC(=O)[C@@H](N)CCC(N)=O)C(=O)N[C@@H](CCC(=O)O)C(=O)N1CCC[C@H]1C(=O)N[C@@H](Cc1ccc(O)cc1)C(=O)NCC(=O)N1CCC[C@H]1C(=O)N[C@@H](CO)C(=O)N[C@@H](CO)C(=O)N1CCC[C@H]1C(=O)N[C@@H](CCC(=O)O)C(=O)N[C@@H](CCC(N)=O)C(=O)N[C@@H](CO)C(=O)NCC(=O)O [SEQ ID NO: 176] (H-QGQEPYGPSSPEQSG-OH) | – | – | – | IC50 (HLA-DQ7.5): 28.6 µM
C[C@@H](O)[C@H](NC(=O)[C@@H]1CCCN1C(=O)CNC(=O)[C@H](Cc1ccc(O)cc1)NC(=O)CNC(=O)[C@H](CCC(=O)O)NC(=O)[C@H](CCC(N)=O)NC(=O)CNC(=O)[C@@H](N)CCC(N)=O)C(=O)N[C@@H](CO)C(=O)NCC(=O)N[C@@H](CCC(=O)O)C(=O)N[C@@H](CCC(N)=O)C(=O)N[C@@H](CO)C(=O)NCC(=O)O [SEQ ID NO: 177] (H-QGQEGYGPTSGEQSG-OH; N-terminus assumed) | – | – | – | IC50 (HLA-DQ8): > 40 µM; IC50 (HLA-DQ2.5 [1]): 25.3 µM
C[C@@H](O)[C@H](NC(=O)[C@@H]1CCCN1C(=O)[C@H](Cc1ccc(O)cc1)NC(=O)[C@H](Cc1ccc(O)cc1)NC(=O)CNC(=O)[C@@H]1CCCN1C(=O)[C@H](CCC(N)=O)NC(=O)CNC(=O)[C@@H](N)CCC(N)=O)C(=O)N[C@@H](CO)C(=O)N1CCC[C@H]1C(=O)N[C@@H](Cc1c[nH]cn1)C(=O)N[C@@H](CCC(N)=O)C(=O)N[C@@H](CO)C(=O)NCC(=O)O [SEQ ID NO: 178] (H-QGQPGYYPTSPHQSG-OH; N-terminus assumed) | – | – | – | IC50 (HLA-DQ8): > 40 µM; IC50 (HLA-DQ2.5 [1]): 29.4 µM
C[C@@H](O)[C@H](NC(=O)[C@@H]1CCCN1C(=O)[C@H](Cc1ccc(O)cc1)NC(=O)[C@H](Cc1ccc(O)cc1)NC(=O)CNC(=O)[C@H](CO)NC(=O)[C@H](CCC(N)=O)NC(=O)CNC(=O)[C@@H](N)CCC(N)=O)C(=O)N[C@@H](CO)C(=O)N1CCC[C@H]1C(=O)N[C@H](C(=O)N[C@@H](CCC(N)=O)C(=O)N[C@@H](CO)C(=O)NCC(=O)O)[C@@H](C)O [SEQ ID NO: 179] (H-QGQSGYYPTSPTQSG-OH; N-terminus assumed) | – | – | – | IC50 (HLA-DQ8): > 40 µM; IC50 (HLA-DQ2.5 [1]): 29.7 µM
QGQPGYYPTSPHQSG-OH [modified 15-mer peptide … (SEQ ID NO: 178)] | – | – | 29.4 | –
QGQEGYGPTSGEQSG-OH [modified 15-mer peptide … (SEQ ID NO: 177)] | – | – | 25.3 | –
QGQKGYYPTSPHQSG-OH [modified 15-mer peptide … (SEQ ID NO: 143)] | – | – | 34.4 | –
QGQHGYDPTSLEQSG-OH [modified 15-mer peptide … (SEQ ID NO: 173)] | – | – | 15.9 | –
QGQSGYYPTSPTQSG-OH [modified 15-mer peptide … (SEQ ID NO: 179)] | – | – | 29.7 | –
QGQEGHGPASPPQSG-OH [modified 15-mer peptide … (SEQ ID NO: 175)] | – | – | 22.1 | –

From patent US20230416314A1, “MODIFIED HIGH MOLECULAR WEIGHT GLUTENIN SUBUNIT AND USES THEREOF” (Ukko Inc., priority 2020, published 2023)
